Data taken from ChEMBL document CHEMBL1127122, “Neurotensin receptor binding and antinociceptive activity for lipophilic N-amido neurotensin(913) analogs” (Bioorg Med Chem Lett, 1993).
Non-standard residues stand in square brackets, D forms with d. Residues, ends and D or L forms follow the SMILES beside them. *: point of attachment. X1 = O=C(C(F)(F)C(F)(F)C(F)(F)C(F)(F)C(F)(F)C(F)(F)C(F)(F)F)*; Adamantane1carbonyl = O=C(C12CC3CC(CC(C3)C1)C2)*; Benzoyl(4-Ph) = O=C(c1ccc(-c2ccccc2)cc1)*; Benzoyl(4-tBu) = CC(C)(C)c1ccc(C(=O)*)cc1; Butanoyl(3,3-Me2) = CC(C)(C)CC(=O)*; Stearoyl = CCCCCCCCCCCCCCCCCC(=O)*; X3 = O=C1NC2CSC(CCCCC(=O)*)C2N1; Nicotinoyl = O=C(c1cccnc1)*; Orn = NCCC[C@H](N)C(=O)O; X2 = O=C(CC1CCC2CCCC21)*; X4 = O=C(CC1CC2CCC1C2)*; Boc = CC(C)(C)OC(=O)*; Piv = CC(C)(C)C(=O)*; Bz = O=C(c1ccccc1)*

Experiments:
[1] = biological target: Neurotensin receptor type 1 (Rattus norvegicus, UniProt P20789); test: Binding affinity against rat neurotensin receptor.
Mus musculus [2] = test: Analgesic activity in fasted male mice in phenylquinone writhing assay 10 min after i.c.v. administration.; assay type: functional
Mus musculus [3] = test: Analgesic activity in fasted male mice in phenylquinone writhing assay 40 min after i.c.v. administration.; assay type: functional
Mus musculus [4] = test: Analgesic activity in fasted male mice in phenylquinone writhing assay 5 min after i.c.v. administration.; assay type: functional
Mus musculus [5] = test: Analgesic activity of i.v. administered compound in fasted male mice at 10 min. interval was determined using phenylquinone writhing assay; assay type: functional; conditions: iv
Mus musculus [6] = test: Analgesic activity of i.v. administered compound in fasted male mice at 5 min. interval was determined using phenylquinone writhing assay; assay type: functional; conditions: iv

Neurotensin receptor type 1, sequence (P20789 whole entry): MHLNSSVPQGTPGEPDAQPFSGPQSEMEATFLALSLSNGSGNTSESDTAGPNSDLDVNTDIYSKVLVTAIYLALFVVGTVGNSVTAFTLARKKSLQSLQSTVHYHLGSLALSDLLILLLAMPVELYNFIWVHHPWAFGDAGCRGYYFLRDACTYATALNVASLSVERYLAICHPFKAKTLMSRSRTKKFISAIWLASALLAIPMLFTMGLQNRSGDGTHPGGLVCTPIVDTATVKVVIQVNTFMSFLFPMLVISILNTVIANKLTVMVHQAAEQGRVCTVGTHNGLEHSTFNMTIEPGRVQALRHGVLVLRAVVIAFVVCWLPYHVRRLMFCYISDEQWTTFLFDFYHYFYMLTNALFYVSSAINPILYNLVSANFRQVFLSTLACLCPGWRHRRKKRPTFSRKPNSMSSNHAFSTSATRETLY

Row | Compound | Ki [1] | ED50 (Mus musculus [2]) | ED50 (Mus musculus [3]) | ED50 (Mus musculus [4]) | ED50 (Mus musculus [5]) | ED50 (Mus musculus [6])
1 | CC[C@H](C)[C@H](NC(=O)[C@H](Cc1ccc(O)cc1)NC(=O)[C@@H]1CCCN1C(=O)[C@H](CCCN)NC(=O)C12CC3CC(CC(C3)C1)C2)C(=O)N[C@@H](CC(C)C)C(=O)O (Adamantane1carbonyl-[Orn]PYIL-OH) [listing 1 of 2 here] | 180 nM |  |  |  |  | 
2 | CC[C@H](C)[C@H](NC(=O)[C@H](Cc1ccc(O)cc1)NC(=O)[C@@H]1CCCN1C(=O)[C@H](CCCN)NC(=O)C12CC3CC(CC(C3)C1)C2)C(=O)N[C@@H](CC(C)C)C(=O)O (Adamantane1carbonyl-[Orn]PYIL-OH) [listing 2 of 2 here] |  | 0.45 ug mouse-1 | 3.6 ug mouse-1 | 0.13 ug mouse-1 | 11 mg/kg | 4.8 mg/kg
3 | CC[C@H](C)[C@H](NC(=O)[C@H](Cc1ccc(O)cc1)NC(=O)[C@@H]1CCCN1C(=O)[C@H](CCCCN)NC(=O)OC(C)(C)C)C(=O)N[C@@H](CC(C)C)C(=O)O (Boc-KPYIL-OH) |  | 0.11 ug mouse-1 | 0.2 ug mouse-1 | 0.02 ug mouse-1 | 6.5 mg/kg | 3.1 mg/kg
4 | CC[C@H](C)[C@H](NC(=O)[C@H](Cc1ccc(O)cc1)NC(=O)[C@@H]1CCCN1C(=O)[C@H](CCCN)NC(=O)OC(C)(C)C)C(=O)N[C@@H](CC(C)C)C(=O)O (Boc-[Orn]PYIL-OH) |  | 0.044 ug mouse-1 | 0.69 ug mouse-1 | 0.00084 ug mouse-1 | 2 mg/kg | 0.85 mg/kg
5 | CC[C@H](C)[C@H](NC(=O)[C@H](Cc1ccc(O)cc1)NC(=O)[C@@H]1CCCN1C(=O)[C@H](CCCCN)NC(=O)c1ccccc1)C(=O)N[C@@H](CC(C)C)C(=O)O (Bz-KPYIL-OH) [listing 1 of 2 here] | 100 nM |  |  |  |  | 
6 | CC[C@H](C)[C@H](NC(=O)[C@H](Cc1ccc(O)cc1)NC(=O)[C@@H]1CCCN1C(=O)[C@H](CCCCN)NC(=O)c1ccccc1)C(=O)N[C@@H](CC(C)C)C(=O)O (Bz-KPYIL-OH) [listing 2 of 2 here] |  | 0.16 ug mouse-1 | 1.5 ug mouse-1 | 0.0088 ug mouse-1 | 5.5 mg/kg | 6.6 mg/kg
7 | CC[C@H](C)[C@H](NC(=O)[C@H](Cc1ccc(O)cc1)NC(=O)[C@@H]1CCCN1C(=O)[C@@H](N)CCCN)C(=O)N[C@@H](CC(C)C)C(=O)O (H-[Orn]PYIL-OH) [listing 1 of 2 here] | 520 nM |  |  |  |  | 
8 | CC[C@H](C)[C@H](NC(=O)[C@H](Cc1ccc(O)cc1)NC(=O)[C@@H]1CCCN1C(=O)[C@@H](N)CCCN)C(=O)N[C@@H](CC(C)C)C(=O)O (H-[Orn]PYIL-OH) [listing 2 of 2 here] |  | 20 ug mouse-1 | 67 ug mouse-1 | 23 ug mouse-1 |  | 
9 | CC[C@H](C)[C@H](NC(=O)[C@H](Cc1ccc(O)cc1)NC(=O)[C@@H]1CCCN1C(=O)[C@H](CCCCN)NC(=O)c1cccnc1)C(=O)N[C@@H](CC(C)C)C(=O)O (Nicotinoyl-KPYIL-OH) [listing 1 of 2 here] | 420 nM |  |  |  |  | 
10 | CC[C@H](C)[C@H](NC(=O)[C@H](Cc1ccc(O)cc1)NC(=O)[C@@H]1CCCN1C(=O)[C@H](CCCCN)NC(=O)c1cccnc1)C(=O)N[C@@H](CC(C)C)C(=O)O (Nicotinoyl-KPYIL-OH) [listing 2 of 2 here] |  | 0.016 ug mouse-1 | 0.3 ug mouse-1 | 0.0016 ug mouse-1 | 3 mg/kg | 3.6 mg/kg
11 | CC[C@H](C)[C@H](NC(=O)[C@H](Cc1ccc(O)cc1)NC(=O)[C@@H]1CCCN1C(=O)[C@H](CCCCN)NC(=O)C(C)(C)C)C(=O)N[C@@H](CC(C)C)C(=O)O (Piv-KPYIL-OH) [listing 1 of 2 here] | 190 nM |  |  |  |  | 
12 | CC[C@H](C)[C@H](NC(=O)[C@H](Cc1ccc(O)cc1)NC(=O)[C@@H]1CCCN1C(=O)[C@H](CCCCN)NC(=O)C(C)(C)C)C(=O)N[C@@H](CC(C)C)C(=O)O (Piv-KPYIL-OH) [listing 2 of 2 here] |  | 0.29 ug mouse-1 | 0.7 ug mouse-1 | 0.28 ug mouse-1 | 15 mg/kg | 15 mg/kg
13 | CCCCCCCCCCCCCCCCCC(=O)N[C@@H](CCCCN)C(=O)N1CCC[C@H]1C(=O)N[C@@H](Cc1ccc(O)cc1)C(=O)N[C@H](C(=O)N[C@@H](CC(C)C)C(=O)O)[C@@H](C)CC (Stearoyl-KPYIL-OH) [listing 1 of 2 here] | > 10000 nM |  |  |  |  | 
14 | CCCCCCCCCCCCCCCCCC(=O)N[C@@H](CCCCN)C(=O)N1CCC[C@H]1C(=O)N[C@@H](Cc1ccc(O)cc1)C(=O)N[C@H](C(=O)N[C@@H](CC(C)C)C(=O)O)[C@@H](C)CC (Stearoyl-KPYIL-OH) [listing 2 of 2 here] |  | >50 ug mouse-1 | >50 ug mouse-1 | 38 ug mouse-1 |  | 
15 | CC[C@H](C)[C@H](NC(=O)[C@H](Cc1ccc(O)cc1)NC(=O)[C@@H]1CCCN1C(=O)[C@H](CCCCN)NC(=O)C(F)(F)C(F)(F)C(F)(F)C(F)(F)C(F)(F)C(F)(F)C(F)(F)F)C(=O)N[C@@H](CC(C)C)C(=O)O (X1-KPYIL-OH) [listing 1 of 2 here] | 2100 nM |  |  |  |  | 
16 | CC[C@H](C)[C@H](NC(=O)[C@H](Cc1ccc(O)cc1)NC(=O)[C@@H]1CCCN1C(=O)[C@H](CCCCN)NC(=O)C(F)(F)C(F)(F)C(F)(F)C(F)(F)C(F)(F)C(F)(F)C(F)(F)F)C(=O)N[C@@H](CC(C)C)C(=O)O (X1-KPYIL-OH) [listing 2 of 2 here] |  | 3.7 ug mouse-1 | 4.4 ug mouse-1 | 2.2 ug mouse-1 | 17 mg/kg | 32 mg/kg
17 | CC[C@H](C)[C@H](NC(=O)[C@H](Cc1ccc(O)cc1)NC(=O)[C@@H]1CCCN1C(=O)[C@H](CCCCN)NC(=O)CC1CCC2CCCC21)C(=O)N[C@@H](CC(C)C)C(=O)O (stereo partly drawn) (X2-KPYIL-OH) | 540 nM | 0.41 ug mouse-1 | 2.5 ug mouse-1 | 0.1 ug mouse-1 | 15 mg/kg | 12 mg/kg
18 | CC[C@H](C)[C@H](NC(=O)[C@H](Cc1ccc(O)cc1)NC(=O)[C@@H]1CCCN1C(=O)[C@H](CCCCN)NC(=O)CCCCC1SCC2NC(=O)NC21)C(=O)N[C@@H](CC(C)C)C(=O)O (stereo partly drawn) (X3-KPYIL-OH) [listing 1 of 2 here] | 290 nM |  |  |  |  | 
19 | CC[C@H](C)[C@H](NC(=O)[C@H](Cc1ccc(O)cc1)NC(=O)[C@@H]1CCCN1C(=O)[C@H](CCCCN)NC(=O)CCCCC1SCC2NC(=O)NC21)C(=O)N[C@@H](CC(C)C)C(=O)O (stereo partly drawn) (X3-KPYIL-OH) [listing 2 of 2 here] |  | 2 ug mouse-1 | 8.3 ug mouse-1 | 0.86 ug mouse-1 | ≥ 81 mg/kg | > 81 mg/kg
20 | CC[C@H](C)[C@H](NC(=O)[C@H](Cc1ccc(O)cc1)NC(=O)[C@@H]1CCCN1C(=O)[C@H](CCCCN)NC(=O)CC1CC2CCC1C2)C(=O)N[C@@H](CC(C)C)C(=O)O (stereo partly drawn) (X4-KPYIL-OH) | 1000 nM | 0.29 ug mouse-1 | 2.7 ug mouse-1 | 0.018 ug mouse-1 | 19 mg/kg | 24 mg/kg
21 | CC[C@H](C)[C@H](NC(=O)[C@H](Cc1ccc(O)cc1)NC(=O)[C@@H]1CCCN1C(=O)[C@H](CCCCN)NC(=O)c1ccc(-c2ccccc2)cc1)C(=O)N[C@@H](CC(C)C)C(=O)O ({Benzoyl(4-Ph)}-KPYIL-OH) [listing 1 of 2 here] | 880 nM |  |  |  |  | 
22 | CC[C@H](C)[C@H](NC(=O)[C@H](Cc1ccc(O)cc1)NC(=O)[C@@H]1CCCN1C(=O)[C@H](CCCCN)NC(=O)c1ccc(-c2ccccc2)cc1)C(=O)N[C@@H](CC(C)C)C(=O)O ({Benzoyl(4-Ph)}-KPYIL-OH) [listing 2 of 2 here] |  | 2.8 ug mouse-1 | 50 ug mouse-1 | 1.7 ug mouse-1 | 13 mg/kg | < 27 mg/kg
23 | CC[C@H](C)[C@H](NC(=O)[C@H](Cc1ccc(O)cc1)NC(=O)[C@@H]1CCCN1C(=O)[C@H](CCCCN)NC(=O)c1ccc(C(C)(C)C)cc1)C(=O)N[C@@H](CC(C)C)C(=O)O ({Benzoyl(4-tBu)}-KPYIL-OH) [listing 1 of 2 here] | 220 nM |  |  |  |  | 
24 | CC[C@H](C)[C@H](NC(=O)[C@H](Cc1ccc(O)cc1)NC(=O)[C@@H]1CCCN1C(=O)[C@H](CCCCN)NC(=O)c1ccc(C(C)(C)C)cc1)C(=O)N[C@@H](CC(C)C)C(=O)O ({Benzoyl(4-tBu)}-KPYIL-OH) [listing 2 of 2 here] |  | 0.088 ug mouse-1 | 0.32 ug mouse-1 | 0.075 ug mouse-1 | 6.6 mg/kg | 12 mg/kg
25 | CC[C@H](C)[C@H](NC(=O)[C@H](Cc1ccc(O)cc1)NC(=O)[C@@H]1CCCN1C(=O)[C@H](CCCCN)NC(=O)CC(C)(C)C)C(=O)N[C@@H](CC(C)C)C(=O)O ({Butanoyl(3,3-Me2)}-KPYIL-OH) [listing 1 of 2 here] | 680 nM |  |  |  |  | 
26 | CC[C@H](C)[C@H](NC(=O)[C@H](Cc1ccc(O)cc1)NC(=O)[C@@H]1CCCN1C(=O)[C@H](CCCCN)NC(=O)CC(C)(C)C)C(=O)N[C@@H](CC(C)C)C(=O)O ({Butanoyl(3,3-Me2)}-KPYIL-OH) [listing 2 of 2 here] |  | 0.1 ug mouse-1 | 1.2 ug mouse-1 | 0.095 ug mouse-1 | 4.9 mg/kg | 6.2 mg/kg
27 | Ac-KPYIL-OH [listing 1 of 2 here] | 2100 nM |  |  |  |  | 
28 | Ac-KPYIL-OH [listing 2 of 2 here] |  | <50 ug mouse-1 | <50 ug mouse-1 | <50 ug mouse-1 |  | 
29 | H-KPYIL-OH |  | 10 ug mouse-1 | 26 ug mouse-1 | 8 ug mouse-1 | > 81 mg/kg | > 81 mg/kg
